# From patent EP2545917B1, “NOVEL EP4 AGONIST” (Kaken Pharmaceutical Co., Ltd., priority 2010, dated 2011)
# Assays:
# [1] = system: anti-Thy-1 antibody-induced glomerulonephritis; assay: Anti-Thy-1 antibody-induced glomerulonephritis model in rats; type: in vivo, Wistar rats; conditions: oral 0.3 mg/kg twice a day
# Experimental: Male Slc: Wistar rats (6 weeks old, Japan SLC) were purchased, acclimated for 1 week and used for the study. Except the normal group, anti-Thy-1 antibody (mouse anti-CD90 antibody (UK-Serotech Ltd. Code:MCA47XZ, clone No: MRC OX-7, Lot No.0303)) was administered once intravenously to the animals. A mixture of compound F and compound J (F:J = 52:41, indicated as compound F/J) was orally administered from the day of the antibody administration (day 0) to day 6, daily, twice a day (morning and evening; each 0.3 mg/kg). After 3 days from the antibody administration, urine was collected for one day. On day 7 of the antibody administration, the animal was autopsied. The right kidney was isolated, weighed and fixed with formalin. Five to 8 animals were used for each group and the results were expressed as average ± standard deviation.
# [2] = system: dextran sodium sulfate-induced colitis; assay: Therapeutic effect on remission/relapse model of dextran sodium sulfate-induced colitis in mice; type: in vivo, BALB/c mice; conditions: SASP 100 mg/kg
# Description: Next, therapeutic effect of compound F on colitis was studied in a chronic model. Female BALB/c mice, 6 weeks old, body weight about 20 g (Japan SLC) were purchased, acclimated for 1 week and used for the study. The mice were divided into a colitis induction group and a normal group. The colitis induction group was allowed to freely drink a 2.6 w/v% DSS (MP Biochemicals, M.W. 36,000- 50,000, Lot No. 4556J) solution to induce colitis. On day 8 when the stool score (defined in Example 23) of the colitis induction group reached about 4.5, the mice were subdivided into a control group, a compound F 1 mg/kg administration group and a salazosulfapyridine (SIGMA, Lot No. 085K1930, hereinafter to be abbreviated as SASP) 100 mg/kg administration group. Then the mice were allowed to freely drink distilled water instead of DSS solution for 9 days (remission period). After the grouping, the stool score was evaluated every 3 - 4 days. When the score of the control group reached about 1, the mice were again allowed to drink the DSS solution to cause a relapse (relapse period). The periods of remission and relapse were taken as 1 cycle and the cycle was repeated 5 times. As for the 5th cycle, however, only the remission period was performed.
# Compound F at a dose of 1 mg/kg and SASP at a dose of 100 mg/kg were orally administered once a day, daily, for 50 days from the initial remission period (day 8 from the start of 2.6 w/v% DSS drinking) to the fifth remission period (day 57 from the start of 2.6 w/v% DSS drinking). To the control group was orally administered a solvent (1 vol% ethanol solution) at 10 mL/kg. If a mouse had score 0 of both stool consistency score and occult blood score on the last day of each remission period, the mouse was regarded as "in remission". The remission ratio (%) was calculated as a ratio of mice in remission in each group. Eight to 10 mice were used for each group and the results are shown in average value.
# [3] = system: CD4+CD25- T cell transfer colitis; assay: Prophylactic effect on CD4+CD25- T cell transfer colitis model in mice; type: in vivo, C.B-17/Icr-scid mice; conditions: scid mice, oral 1 mg/kg once a day for 20 days
# Experimental: Female BALB/cA Jcl mice, 6 weeks old, body weight 19 - 23 g (CLEA Japan, Inc.) and female C.B-17/Icr-scid mice (6 weeks old, CLEA Japan, Inc.) were purchased, acclimated for 1 week and used for the study. After laparotomy under ether anesthesia, BALB/cA Jcl mice were exsanguinated to death through the abdominal aorta and caudal vena cava, and the spleen was isolated. Splenocytes were prepared from the spleen and then CD4^+CD25^- T cells were prepared with a CD4^+ T cell Isolation Kit (No. 130-090-860, Milky Biotech Co., Ltd.) and CD25-Biotin antibody (No. 130-092-569, Milky Biotech Co., Ltd.). The cells were separated using the autoMACS Separator (Milky Biotech Co., Ltd.). The separated CD4^+CD25^- T cells were suspended in physiological phosphate buffer solution, and 2.5×10^5 cells per animal were intraperitoneally administered to C.B-17/Icr-scid mice to induce colitis. […] To the control group was orally administered a solvent (1 vol% ethanol solution) at 10 mL/kg. […] The fecal occult blood score was evaluated in the same manner as in Example 23. […] Eight to 10 mice were used for each group and the results were expressed as average.
# [4] = system: concanavalin A-induced hepatitis; assay: Prophylactic effect on concanavalin A-induced hepatitis model in mice; type: in vivo, BALB/c mice; conditions: oral 1 hr before Con A, compound F 1 mg/10 mL/kg, prednisolone 5 mg/10 mL/kg, 20 hr after Con A
# Experimental: BALB/c mice (female, 7 weeks old, Japan SLC) were purchased, acclimated for 1 week and used for the study. Except the no-induction group, Con A (type IV, Sigma-Aldrich) dissolved in saline was administered from the tail vein of the mice at a dose of 12.5 mg/10 mL/kg to induce hepatitis. Twenty hr later, the mice were subjected to laparotomy under ether anesthesia. A 0.5 mL of blood sample was collected from the caudal vena cava and heparinized plasma was obtained to measure plasma ALT and AST activities. Test substances were compound F (1 mg/10 mL solution), prednisolone (Nacalai Tesque, 5 mg/10 mL suspension (with 0.5 w/v% methylcellulose)) and water for injection (administered to the control group), which were orally administered at a volume of 10 mL/kg 1 hr before Con A injection. Seven to 9 animals were used for each group. After logarithmic transformation of the data, one-way analysis of variance was performed for statistical evaluation.
# [5] = mice, oral once a day, Compound F 1 mg/kg
compound,measurement,setting,value
"Cc1cccc(C(C)[C@H](O)/C=C/[C@@H]2[C@@H]3[C@H](C[C@H]2O)O/C(=C\CCCc2nnn[nH]2)C3(F)F)c1 (mixture of isomers) [compound F/J, 4-[(Z)-(1S,5R,6R,7R)-6-[(1E,3R,4RS)-3-hydroxy-4-(m-tolyl)-1-pentenyl]-7-hydroxy-2-oxa-4,4-difluoro-bicyclo[3.3.0]octan-3-ylidene]-1-(tetrazol-5-yl)butane]",body weight,[1],a shift similar to that of the control group
same,relative kidney weight,[1]; day 7,a value lower than control and near the normal
same,"renal histopathology: total glomerular cells, mesangial region and PCNA-positive cells in the glomerulus",[1]; day 7,significantly suppressed the increase in all of these measures
same,24-hr urine protein,[1]; urine collected after 3 days,a lower value than control
same,24-hr urine volume,[1]; urine collected after 3 days,of the same level as the normal group
"O=C(O)c1cc(/N=N/c2ccc(S(=O)(=O)Nc3ccccn3)cc2)ccc1O [SASP, salazosulfapyridine, reference compound]",Remission Ratio Average,"[2]; average of 5 remission periods, Compound F 1 mg/kg",40.0%
same,effect on stool score in remission and relapse periods,"[2]; mice, oral once a day for 50 days, compound F 1 mg/kg",did not show a clear effect on the stool score in either the remission period or the relapse period
same,Remission Ratio Cycle 1,[2]; [5],50.0%
same,Remission Ratio Cycle 2,[2]; [5],50.0%
same,Remission Ratio Cycle 3,[2]; [5],37.5%
same,Remission Ratio Cycle 4,[2]; [5],50.0%
same,Remission Ratio Cycle 5,[2]; [5],12.5%
"C[C@]12C=CC(=O)C=C1CC[C@@H]1[C@@H]2[C@@H](O)C[C@@]2(C)[C@H]1CC[C@]2(O)C(=O)CO [prednisolone, reference compound]",effect on body weight decrease score,[3],clearly worsened the score
same,effect on stool consistency score,[3],failed to show a clear effect on the stool consistency score on day 21
same,effect on increase of plasma ALT activity,[4],significantly and strongly suppressed the increase
same,effect on increase of plasma AST activity,[4],significantly and strongly suppressed the increase
